# Target: T1, HCV RNA-dependent RNA polymerase (NS5B protein) (Hepatitis C virus genotype 1b, UniProt P26663)
# T1 construct: The cDNA encoding the entire NS5B protein of HCV-Bk strain, genotype 1b; initiator Met (ATG added before the NS5B coding region) (N); made in house; host or cells: Sf9 insect cells, recombinant baculovirus (pBlueBacII, BacNS5B)
# Assay: HCV RNA-dependent RNA polymerase assay (in vitro RdRp assay, heteropolymeric RNA template)
# Type: biochemical, HCV-Bk strain
# Details: natural NTP substrates of purified NS5B in the RdRp assay
# Method: Compounds were evaluated using an in vitro polymerase assay containing purified recombinant HCV RNA-dependent RNA polymerase (NS5B protein). HCV NS5B was expressed in insect cells using a recombinant baculovirus as vector. The experimental procedures used for the cloning, expression and purification of the HCV NS5B protein are described below. Following are details of the RNA-dependent RNA polymerase assays used to test the compounds.
# The cDNA encoding the entire NS5B protein of HCV-Bk strain, genotype 1b, was amplified by PCR using a plasmid containing a cDNA version of the full-length HCV genome as template. The oligonucleotides used to amplify this HCV region were designed to introduce a NheI site followed by an ATG at the 5′ end of the NS5B coding region as well as a BamHI site at the 3′end immediately downstream of the translation stop codon. The amplified sequence, of 1.8 kb, was digested with NheI and BamHI and ligated to a predigested pBlueBacII plasmid (Invitrogen). The resulting recombinant plasmid was designated pBac/NS5B. Sf9 cells were co-transfected with 3 μg of pBac/NS5B, together with 1 μg of linearized baculovirus DNA (Invitrogen), as described in the manufacturer's protocol. Following two rounds of plaque purification, an NS5B-recombinant baculovirus, BacNS5B, was isolated. The presence of the recombinant NS5B protein was determined by western blot analysis (Harlow and Lane, 1988) of BacNS5B-infected Sf9 cells, using a HCV NS5B specific rabbit polyclonal antiserum (anti-NS5B). Infections of Sf9 cells with this plaque purified virus were performed in one-liter spinner flasks at a cell density of 1.2×10^6 cells/ml and a multiplicity of infection of 5.
# Sf9 cells were infected as described above. Sixty hours post-infection, cells were harvested then washed twice with phosphate buffer saline (PBS). Total proteins were solubilized as described in Lohmann et al. […] with some modifications. In brief, proteins were extracted in three steps, S1, S2, S3, using lysis buffers (LB) I, LB II and LB III (Lohmann et al, 1997). The composition of LBII was modified to contain 0.1% triton X-100 and 150 mM NaCl to reduce the amount of solubilized NS5B protein at this step. In addition, sonication of cell extracts was avoided throughout the protocol to preserve the integrity of the protein structure.
# Soluble NS5B protein in the S3 fraction was diluted to lower the NaCl concentration to 300 mM, then it incubated batchwise with DEAE sepharose beads (Amersham-Pharmacia) for 2 hrs at […], as described by Behrens et al. (1989). Unbound material was cleared by centrifugation for 15 min at 4° C., at 25 000 rpm using a SW41 rotor (Beckman). The supernatant was further diluted to lower the NaCl concentration to 200 mM and subsequently loaded, with a flow rate of 1 ml/min, on a 5 ml HiTrap® heparin column (Amersham-Pharmacia) connected to an FPLC® system (Amersham-Pharmacia). Bound proteins were eluted in 1 ml fractions, using a continuous NaCl gradient of 0.2 to 1 M, over a 25 ml volume. NS5B-containing fractions were identified by sodium dodecyl sulfate polyacrylamide gel electrophoresis (SDS-PAGE), followed by western blotting using the anti-NS5B antiserum at a dilution of 1:2000. Positive fractions were pooled and the elution buffer was exchanged against a 50 mM NaPO4 pH 7.0, 20% glycerol, 0.5% triton X-100 and 10 mM DTT, using a PD-10 column (Amersham-Pharmacia). The sample was then loaded onto a 1 ml HiTrap® SP column (Amersham-Pharmacia), with a flow rate of 0.1 ml/min. Bound proteins were eluted using a continuous 0 to 1 M NaCl gradient over a 15 ml volume. Eluted fractions were analyzed by SDS-PAGE and western blotting. Alternatively, proteins were visualized, following SDS-PAGE, by silver staining using the Silver Stain Plus kit (BiORad) as described by the manufacturer.
# RdRp assays were conducted using in vitro transcribed heteropolymeric RNA templates. […]
# T1 sequence (P26663 2420-3010): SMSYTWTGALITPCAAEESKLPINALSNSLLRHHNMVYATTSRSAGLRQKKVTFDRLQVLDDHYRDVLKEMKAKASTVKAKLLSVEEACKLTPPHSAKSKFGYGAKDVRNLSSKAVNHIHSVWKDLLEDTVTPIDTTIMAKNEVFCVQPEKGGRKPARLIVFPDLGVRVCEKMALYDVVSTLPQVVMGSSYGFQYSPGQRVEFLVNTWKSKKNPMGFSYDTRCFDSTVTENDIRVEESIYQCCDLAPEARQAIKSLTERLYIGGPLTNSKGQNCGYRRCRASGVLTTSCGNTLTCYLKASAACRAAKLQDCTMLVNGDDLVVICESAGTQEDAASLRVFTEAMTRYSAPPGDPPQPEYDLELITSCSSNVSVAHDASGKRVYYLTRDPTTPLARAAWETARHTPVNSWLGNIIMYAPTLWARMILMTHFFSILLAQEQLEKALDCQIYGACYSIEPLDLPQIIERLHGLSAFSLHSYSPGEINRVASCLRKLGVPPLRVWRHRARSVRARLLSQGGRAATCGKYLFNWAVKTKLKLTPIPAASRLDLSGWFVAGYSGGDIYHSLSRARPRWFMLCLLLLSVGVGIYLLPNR
row,Compound,measured Kms for the four substrates
1,"Nc1ncnc2c1ncn2[C@@H]1O[C@H](COP(=O)(O)OP(=O)(O)OP(=O)(O)O)[C@@H](O)[C@H]1O [ATP, reference compound]",18 µM
2,"Nc1nc2c(ncn2[C@@H]2O[C@H](COP(=O)(O)OP(=O)(O)OP(=O)(O)O)[C@@H](O)[C@H]2O)c(=O)[nH]1 [GTP, reference compound]",0.5 µM
3,"O=c1ccn([C@@H]2O[C@H](COP(=O)(O)OP(=O)(O)OP(=O)(O)O)[C@@H](O)[C@H]2O)c(=O)[nH]1 [UTP, reference compound]",1.2 µM
4,"Nc1ccn([C@@H]2O[C@H](COP(=O)(O)OP(=O)(O)OP(=O)(O)O)[C@@H](O)[C@H]2O)c(=O)n1 [CTP, reference compound]",0.5 µM

# Same assay, conditions: purified recombinant NS5B 200 ng; competing NTP at twice Km, other NTPs 100 μM; 2 h at 22° C.; triphosphate form tested
row,Compound,IC50
1,"Nc1ccn([C@@H]2O[C@H](COP(=O)(O)OP(=O)(O)OP(=O)(O)O)[C@@H](F)[C@H]2O)c(=O)n1 [COMPOUND#24, 3′-fluoro-3′-deoxycytidine-5′triphosphate]",55 nM
2,6-Chloro- 3′-deoxyguanosine- 5′triphosphate [COMPOUND#32],6800 nM
3,"Nc1nc(=O)n([C@@H]2O[C@H](COP(=O)(O)OP(=O)(O)OP(=O)(O)O)C[C@H]2O)cc1I [COMPQUND#26, 5- = Iodp-3′-deoxycytidine-5′triphosphate]",910 nM
4,"CC(=O)Nc1nc2c(ncn2[C@@H]2O[C@H](COP(=O)(O)OP(=O)(O)OP(=O)(O)O)C[C@H]2O)c(=O)[nH]1 [COMPOUND#14, 2-N-acetyl-3′-deoxyguanosine-5′triphosphate]",3100 nM
5,"Nc1nc(=O)n([C@@H]2O[C@H](COP(=O)(O)OP(=O)(O)OP(=O)(O)O)C[C@H]2O)cc1Cl [COMPOUND#20, 5- = Chloro-3′-deoxycytidine-5′triphosphate]",180 nM
6,"Nc1nc(O)c2ncn([C@@H]3O[C@H](COP(=O)(O)OP(=O)(O)OP(=O)(O)O)[C@@H](F)[C@H]3O)c2n1 [COMPOUND#22, 3′-fluoro-3′-deoxyguanosine-5′triphosphate]",120 nM
7,"Cc1cn([C@H]2CC[C@@H](COP(=O)(O)OP(=O)(O)OP(=O)(O)O)O2)c(=O)[nH]c1=O [COMPOUND#10, 3′-deoxythymidine-5′triphosphate]",6400 nM
8,"Nc1nc(=O)n([C@@H]2O[C@H](COP(=O)(O)OP(=O)(O)OP(=O)(O)O)C[C@H]2O)cc1F [COMPOUND#4, 5-Fluoro-3′-deoxycytidine-5′triphosphate]",300 nM
9,"O=c1[nH]c(=O)n([C@@H]2O[C@H](COP(=O)(O)OP(=O)(O)OP(=O)(O)O)C[C@H]2O)cc1Br [COMPOUND#30, 5-Bromo-3′-deoxyuridine-5′triphosphate]",2900 nM
10,"Nc1nc2c(ncn2[C@@H]2O[C@H](COP(=O)(O)OP(=O)(O)OP(=O)(O)O)C[C@H]2O)c(=O)[nH]1 [COMPOUND#12, 3′-deoxyguanosine-5′triphosphate]",48 nM
11,"O=c1[nH]c(=O)n([C@@H]2O[C@H](COP(=O)(O)OP(=O)(O)OP(=O)(O)O)C[C@H]2O)cc1Cl [COMPOUND#28, 5-Chloro-3′-deoxyuridine-5′triphosphate]",2100 nM
12,"O=c1[nH]c(=O)n([C@@H]2O[C@H](COP(=O)(O)OP(=O)(O)OP(=O)(O)O)C[C@H]2O)cc1F [COMPOUND#8, 5-Fluoro-3′-deoxyuridine-5′triphosphate]",1980 nM
13,"Nc1nc(=O)n([C@@H]2O[C@H](COP(=O)(O)OP(=O)(O)OP(=O)(O)O)C[C@H]2O)cc1I [COMPOUND#18, 5-Iodo-3′-deoxycytidine-5′triphosphate]",6880 nM
14,"[N-]=[N+]=N[C@H]1[C@@H](O)[C@H](n2ccc(N)nc2=O)O[C@@H]1COP(=O)(O)OP(=O)(O)OP(=O)(O)O [COMPOUND#54, 3′-azido-3′-deoxycytidine 5′triphosphate]",9000 nM
15,"O=c1ccn([C@@H]2O[C@H](COP(=O)(O)OP(=O)(O)OP(=O)(O)O)C[C@H]2O)c(=O)[nH]1 [COMPOUND#6, 3′-deoxyuridine-5′triphosphate]",260 nM
16,"Cc1cn([C@@H]2O[C@H](COP(=O)(O)OP(=O)(O)OP(=O)(O)O)C[C@H]2O)c(=O)nc1N [COMPOUND#16, 5-Methyl-3′-deoxycytidine-5′triphosphate]",360 nM
17,"Nc1ccn([C@@H]2O[C@H](COP(=O)(O)OP(=O)(O)OP(=O)(O)O)C[C@H]2O)c(=O)n1 [COMPOUND#2, 3′-deoxycytidine-5′triphosphate]",36 nM

# Source: patent publication US20040248844A1, “Method for the treatment or prevention of Flavivirus infections using nucleoside analogues” (priority 2000, published 2004)
